Patent US20220395464A1, “ORALLY ADMINISTERED SOLID DOSAGE FORM DRUG” (ASCENTAWITS PHARMACEUTICALS, LTD., priority 2019, published 2022)
Values joined by “and” are separate entries in the source; they are usually repeats but may differ in a detail not shown here. Equal values may be shown once. Read-outs that look alike come from different tables or passages of the source.

Experiments:
[1] = Pharmacokinetics after single intravenous drip infusion, plasma LC-MS/MS; format: in vivo, Philippine macaques; conditions: male, plasma, 0.58 mg/kg, plasma; for Tmax: read-out: Tmax, Mean
Procedure: AST-3424 and AST-3424-D6 (i.e. the compound of formula I) were administered to Philippine macaques by intravenous drip infusion, and blood samples were collected at different appointed times. LC-MS/MS was used to determine concentrations of the test substances in plasma of the Philippine macaques after administration, and relevant pharmacokinetic parameters were calculated.
Preparation method: 0.447 ml of AST-3424 (0.2 mg/ml) and 0.481 ml of AST-3424-D6 (0.2 mg/ml) were added into 104.272 ml of the dissolvent, respectively, and mixed for 5 minutes to obtain colorless and clarified solutions with pH 7.0.
The four male Philippine macaques were purchased from Guangxi Xiongsen Primate Development Experiment Co., Ltd. All Philippine macaques were healthy with qualified medical examination and no abnormality. Three of animals were used for the experiment, and one of them was used to prepare blank plasma.
About 0.8 ml of blood samples were collected through femoral vein and anticoagulated with heparin sodium. Appointed times of blood collection were before administration, 0.17, 0.25, 0.5, 0.75, 1, 2, and 4 hours after administration.
The blood samples were placed on ice after collection. Next, plasma samples were separated by centrifugation, and centrifugation conditions were 3500 rpm for 10 minutes at 4° C. Then, the collected plasma samples were stored at −80° C. until analysis. The plasma samples were analyzed by LC-MS/MS by an analysis department of an experimental institution. Besides, Lower limit of quantifications (LLOQ) of AST-3424 and AST-3424-D6 detection were 1 ng/ml. The accuracy of analysis results of an accompanying standard curve and a quality control samples all met the relevant requirements of biological analysis (the accuracy of the quality control samples exceeding 66.7% was between 85˜115%) in a process of the sample detection.
According to average blood concentration data of each group at each appointed time, the pharmacokinetic parameters of the compounds were respectively computed by a pharmacokinetic computing software, a non-compartmental model. In addition, the pharmacokinetic parameters were AUC0-t, AUC0-∞, MRT0-∞, Cmax, Tmax, t1/2, etc. In the case of the concentrations of the samples whose concentration being lower than a lower limit of quantification, the following schemes were used to compute the pharmacokinetic parameters. The samples sampled before reaching Cmax shall be computed as zero value, while the samples sampled after reaching Cmax shall be computed as non-quantifiable (marked as “BLQ”).
After a single intravenous infusion of the compounds AST-3424 and AST-3424-D6 was administered to the Philippine macaques, the whole blood samples of the corresponding animals were collected at the appointed times. Next, the whole blood samples were processed and biologically analyzed to obtain concentrations of the compounds in the plasma at the different appointed times. Results of the assay were listed in Table 14 below, and corresponding means of the plasma-drug concentration-time curves are shown in FIG. 3.
According to the plasma-drug concentration data of each drug group, the pharmacokinetic parameters of each compound group were computed using the non-compartmental model of the pharmacokinetic computing software. The pharmacokinetic

[2] = Stability in hepatomicrosome with NADPH (LC-MS/MS); format: in vitro ADME, human; conditions: for % Remaining: human hepatomicrosome 0.5 mg/ml, NADPH 2 mM, 37° C., Sample 1, Sample 2
Procedure: The compounds, hepatomicrosome and reduced coenzyme NADPH were mixed together. Besides, a final concentration of the hepatomicrosome was 0.5 mg/ml, and human, male and mixed types of the hepatomicrosome were purchased. A final concentration of the NADPH was 2 mM. Next, the preceding mixtures were incubated in buffer (100 mM KH2PO4—K2HPO4) at 37° C. for 0, 5, 15, 30, 45, and 60 minutes, respectively. At the appointed incubation time, the reaction was terminated by the addition of an internal standard solution. Finally, the samples were centrifuged and the supernatant was taken for detection by LC-MS/MS.
Through mass spectrometry analysis, a concentration of the compounds in each sample was expressed by a peak-area ratio (a ratio of the peak-area of the compound to a peak-area of the internal standard). Then, each remaining percentage of the compounds (% Remaining) at each appointed incubation time was calculated with a reference that 0 minute at each concentration of the compounds. In logarithm of the remaining percentage was fitted linearly with the appointed incubation times, and a half-life and an intrinsic clearance were calculated according to the following formulas.
The remaining percentage (% Remaining)=(a peak area ratio at a certain appointed time (PARappointed time)/a peak area ratio at 0 minute (PAR0-mm)×100 (PAR: peak area ratio)
The elimination rate constant (k)=a negative of a slope (-gradient)
In vitro clearance (CLint, in vitro) (ml/min/mg)=k/c (c: a concentration of hepatomicrosome in the incubation system)

[3] = Philippine macaque, intravenous, AST-3424 intravenous drip infusion 0.58 mg/kg, individual animals 101, 102, 103, read-out: Plasma-drug concentration
[4] = Philippine macaque, intravenous, AST-3424 intravenous drip infusion 0.58 mg/kg, read-out: Plasma-drug concentration, mean

Stability parameter k (elimination rate constant) ([2]; human hepatomicrosome): 0.0606 min⁻¹
% Remaining ([2]; 0 minutes): 101.36% and 98.64%
% Remaining ([2]; 5 minutes): 77.67% and 80.00%
% Remaining ([2]; 15 minutes): 45.83% and 47.38%
% Remaining ([2]; 30 minutes): 17.86% and 16.93%
% Remaining ([2]; 45 minutes): 6.52% and 6.95%
% Remaining ([2]; 60 minutes): 2.64% and 2.68%
% Remaining, Average ([2]; human hepatomicrosome, 0 minutes): 100.00%
% Remaining, Average ([2]; human hepatomicrosome, 5 minutes): 78.83%
% Remaining, Average ([2]; human hepatomicrosome, 15 minutes): 46.60%
% Remaining, Average ([2]; human hepatomicrosome, 30 minutes): 17.40%
% Remaining, Average ([2]; human hepatomicrosome, 45 minutes): 6.74%
% Remaining, Average ([2]; human hepatomicrosome, 60 minutes): 2.66%
half-life ([2]; male, liver microsomes (hepatomicrosome), human hepatomicrosome, read-out: Stability parameter (t1/2)): 11.4 min
SMILES: C[C@H](OP(=O)(N1CC1)N1CC1)c1ccc([N+](=O)[O-])c(Oc2cccc(C(=O)N(C)C)c2)c1 [AST-3424, (S)-1-(3-(3-N,N-Dimethylaminocarbonyl)phenoxy-4-nitrophenyl)-1-ethyl-N,N′-bis(ethylene) phosphoramidate]
Tmax ([1]; Philippine macaque, cynomolgus monkey, iv, AST-3424 0.58 mg/kg single intravenous infusion): 18.6 min
Vd ([1]; Philippine macaque, cynomolgus monkey, iv, AST-3424 0.58 mg/kg single intravenous infusion, read-out: Vz, Mean): 0.306 L/kg
concentration at 0.17 hr [1, 3]: 638 ng/mL
concentration at 0.17 hr [1, 4]: 708 ng/mL
concentration at 0.25 h [1, 3]: 649 ng/mL
concentration at 0.25 h [1, 4]: 691 ng/mL
concentration at 0.5 h [1, 3]: 677 ng/mL
concentration at 0.5 h [1, 4]: 695 ng/mL
concentration at 0.75 h [1, 3]: 152 ng/mL
concentration at 0.75 h [1, 4]: 143 ng/mL
concentration at 1 h [1, 3]: 57.3 ng/mL
concentration at 1 h [1, 4]: 46.6 ng/mL
concentration at 2 h ([1]; Philippine macaque, intravenous, AST-3424 intravenous drip infusion 0.58 mg/kg, 2 hr, individual animals 101, 102, 103, LLOQ 1 ng/ml, read-out: Plasma-drug concentration): 1.29 ng/mL
concentration at 2 hr ([1]; Philippine macaque, intravenous, AST-3424 intravenous drip infusion 0.58 mg/kg, 2 hr, read-out: Plasma-drug concentration, mean): 1.4 ng/mL
MRT last ([1]; cynomolgus monkey, iv, AST-3424 0.58 mg/kg single intravenous infusion, individual animals 101, 102, 103, read-out: MRT(0−t)): 7.8 min
MRT inf ([1]; cynomolgus monkey, iv, AST-3424 0.58 mg/kg single intravenous infusion, individual animals 101, 102, 103, read-out: MRT(0−∞)): 8.4 min
Tmax ([1]; cynomolgus monkey, iv, AST-3424 0.58 mg/kg single intravenous infusion): 18.4 min
Vd ([1]; cynomolgus monkey, iv, AST-3424 0.58 mg/kg single intravenous infusion, read-out: Vss, Mean): 0.226 L/kg
